US7211246B2, “Compositions comprising oestrone-3-0-sulphamate and trail (TNF-related apoptosis inducing ligand)” (Sterix Limited, priority 2001, dated 2007)

B1: TRAIL: Tumour necrosis factor (TNF) related apoptosis inducing ligand; recombinant human TRAIL used in the tests (protein, UniProt P50591 1-281, looked up)
Tumor necrosis factor ligand …: MAMMEVQGGPSLGQTCVLIVIFTVLLQSLCVAVTYVYFTNELKQMQDKYSKSGIACFLKEDDSYWDPNDEESMNSPCWQVKWQLRQLVRKMILRTSEETISTVQEKQQNISPLVRERGPQRVAAHITGTRGRSNTLSSPNSKNEKALGRKINSWESSRSGHSFLSNLHLRNGELVIHEKGFYYIYSQTYFRFQEEIKENTKNDKQMVQYIYKYTSYPDPILLMKSARNSCWSKDAEYGLYSIYQGGIFELKENDRIFVSVTNEHLIDMDHEASFFGAFLVG

Columns and labels:
DR4 mRNA = assay: RNAse protection assay, DR4 mRNA levels in Cal51 cells; type: cell-based, Human; details: 0.5 μM, over 48 hours
Experimental: (§1) RNAse protection assay showing DR5, DR4 and GAPDH mRNA levels at 0, 8, 16, 24 and 48 hours following treatment with 0.5 μM 2-MeOEMATE and 2-EtEMATE in Cal51 cells.
(§2) We investigated if the co-operation observed between TRAIL and 2-MeOEMATE or 2-EtEMATE to induce cell death in CAL51 cells was due to upregulation of DR4 and/or DR5 receptors by 2-MeOEMATE and 2-EtEMATE. We used RNAse protection assays to examine the levels of mRNAs for DR4 and DR5 following treatment of CAL51 cells with 2-MeOEMATE and 2-EtEMATE over 48 hours.
(§3) This experiment was performed once. A radiolabeled RNA multi-probe was synthesised (Pharmingen RiboQuant Human Apoptosis Multiprobe template set hAPO-3c) using [α^32P] UTP and […] RNA polymerase. This multi-probe template set allows simultaneous generation of several probes for detection and measurement of apoptosis related genes. […]
(§4) Total RNA was prepared using Trizol reagent (Gibco-BRL) from CAL-51 cells treated with 2-MeOEMATE or 2-EtEMATE for 0, 8, 16, 24 and 48 hrs. […] The gel was dried and analysed by phosphoimaging on the Personal Molecular Imager Fx (Biorad). Protected fragment bands corresponding to DR5 and GAPDH were quantified and expressed as a ratio of DR5/GAPDH to normalise results.

CAL51 cells = assay: Cell Titre 96 Aqueous One Solution cell proliferation assay, CAL51 cells; type: cell-based; details: 2 days; for cell death compared to treatment with compound alone: in combination with TRAIL (50 or 250 ng/ml)
Experimental: (§5) FIGS. 1A to 1C show effects of 2-MeOEMATE and 2-EtEMATE on TRAIL induced apoptosis in CAL51 and MCF-7 cells. Cell proliferation assays in which CAL51 cells or MCF7 cells were plated at a density of 5,000 in 96 well plates and treated with 0, 0.05, 0.5 or 5 μM MeoEMATE or 2-EtEMATE in the presence of 0, 50 or 250 ng/ml recombinant human TRAIL. Results are the mean of triplicates+/−S.D. and are expressed as a percentage of results for untreated cells.
(§6) Cell proliferation was measured using the Cell Titre 96 Aqueous One Solution Cell proliferation assay (Promega). This is a colorimetric method which determines cell viability and can therefore be used to measure the ability of drugs to cause cell death. The assay is performed by adding the cell proliferation reagent directly to the cells. Metabolically active cells convert the reagent to a coloured formazan product and the absorbance at 490 nm is measured 1–4 hrs after incubation at 37° C.
(§7) For the TRAIL co-operation experiments, CAL-51 of MCF-7 cells were plated at 5,000 cells per well in 96 well plates. CAL-51 cells were treated with 0, 0.05, 0.5 or 5 μM 2-MeOEMATE or 2-EtEMATE in the presence of 0, 50 or 250 ng/ml recombinant human TRAIL. MCF7 cells were treated with 5 μM 2-MeOEMATE or 2-EtEMATE in the presence or absence of 250 ng/ml recombinant human TRAIL. Cell proliferation was measured 2 days (CAL-51) or 1 day (MCF-7) after addition of drugs. Tests were performed in triplicate and data are means of triplicate results+/−S.D. and are expressed as a percentage of results obtained for untreated cells. Experiments on CAL-51 cells were performed 4 times for each compound and once for each compound on MCF-7 cells.

DR5 protein = assay: Western blot of DR5 protein levels in Cal51 cells; type: cell-based; details: 48 hours, 0.05, 0.5 and 5 μM
Experimental: FIG. 6. […] Western blot showing DR5 protein levels following treatment of Cal51 cells for 48 hours with 0, 0.05, 0.5 and 5 μM of 2-MeOEMATE or 2-EtEMATE. PCNA levels represent corresponding loading controls.
Protein lysates were prepared from CAL51 cells treated with various compounds and analysed for expression of DR5 by immunoblotting (FIG. 6).

DR5 mRNA = assay: RNAse protection assay, DR5 mRNA levels in Cal51 cells; type: cell-based, Human; details: 0.5 μM, between 24 and 48 hours
Experimental: as §1, §2, §3, §4

MCF-7 cells = assay: Cell Titre 96 Aqueous One Solution cell proliferation assay, MCF-7 cells; type: cell-based; details: 24 hrs
Experimental: as §5, §6, §7

caspase 3 = assay: Western blot of caspase 3 activation in Cal51 cells; type: cell-based; details: Cal51 cells, 48 hours; for activation of caspase 3 compared to compound alone: 5 μM compound in combination with 250 ng/ml TRAIL; for activation of caspase 3 (reduction of unprocessed caspase 3): treatment alone, 5 μM compound or 250 ng/ml TRAIL
Experimental: FIG. 3. Effect of 2-MeOE2bisMATE on caspase 8 and caspase 3 activation and PARP cleavage in Cal51 cells. Western blots showing caspase 8 and caspase 3 unprocessed and active fragments and PARP uncleaved and cleaved products following treatment of Cal51 cells with solvent, 0.05, 0.5 or 5 μM 2-MeOE2bisMATE for 48 hours.
FIG. 5. Effect of 2-MeOE2bisMATE on the timing of caspase 3 and caspase 8 activation and PARP cleavage in Cal51 cells. Western blots showing caspase 3, caspase 8 and PARP unprocessed and cleaved products at 0, 8, 16, 24 and 48 hrs following treatment of Cal51 cells with 5 μM 2-MeOE2bisMATE for 48 hrs or untreated for 48 hrs (48NT).
FIG. 7. Effect of combined treatment of 2-EtEMATE or 2-MeOEMATE and TRAIL on caspase 3 activation in Cal51 cells. Western blots showing caspase 3 activation following treatment of Cal51 cells for 48 hours with solvent, 250 ng/ml TRAIL and 5 μM 2-EtEMATE or 2-MeOEMATE in the presence or absence of 250 ng/ml TRAIL. PCNA levels represent corresponding loading controls. 1, control; 2, THF solvent; 3, TRAIL; 4, 2-EtEMATE; 5,2-EtEMATE+TRAIL; 6, control; 7, THF solvent; 8, TRAIL; 9, 2-MeOEMATE; 10, 2-MeOEMATE+TRAIL
To determine whether caspases might play a role in cell death induced by 2-MeOE2bisMATE and other sulfamoylated oestrogen derivatives, we examined the expression of caspase 3, caspase 8 and PARP by immunoblotting (FIG. 3). […] Therefore, cell death induced by the 2-MeOE2bisMATE in Cal51 cells is associated with caspase activation.
There are two major pathways of apoptosis; cell surface death receptors activate caspases directly via activation of caspase 8 whereas other apoptotic stimuli operate via triggering the release of cytochrome c from mitochondria which subsequently activates caspases. Both pathways ultimately result in activation of caspase 3 and PARP cleavage. Since activation of caspase 8 is an indicator for the direct involvement of death receptors, it is important to determine whether activation of caspase 8 by 2-MeOE2bisMATE precedes or follows caspase 3 activation. We therefore performed time course experiments in Cal51 cells treated with 2-MeOE2bisMATE to order the activation events. Caspase 3 activation was first detected at 16 hours and as expected was followed by PARP cleavage at 24 hours (FIG. 5). Caspase 8 activation was a relatively late event, first detected at 48 hours. Therefore activation of caspase 3 induced by 2-MeOE2bisMATE precedes activation of caspase 8.
To further explore the mechanism for co-operation between sulfamoylated oestrones and TRAIL, we analysed activation of caspase 3 (FIG. 7). […] Therefore, sulfamoylated oestrones and TRAIL cooperate to activate caspase 3.

E1-STS [1] = target: T1, E1-STS (Homo sapiens, UniProt P08842); design: E1-STS activity in intact MCF-7 cells; endogenous in cells; host or cells: MCF-7 cells; details: intact MCF-7 cells, 0.1 μM; cited from earlier work
T1 sequence (P08842 22-583): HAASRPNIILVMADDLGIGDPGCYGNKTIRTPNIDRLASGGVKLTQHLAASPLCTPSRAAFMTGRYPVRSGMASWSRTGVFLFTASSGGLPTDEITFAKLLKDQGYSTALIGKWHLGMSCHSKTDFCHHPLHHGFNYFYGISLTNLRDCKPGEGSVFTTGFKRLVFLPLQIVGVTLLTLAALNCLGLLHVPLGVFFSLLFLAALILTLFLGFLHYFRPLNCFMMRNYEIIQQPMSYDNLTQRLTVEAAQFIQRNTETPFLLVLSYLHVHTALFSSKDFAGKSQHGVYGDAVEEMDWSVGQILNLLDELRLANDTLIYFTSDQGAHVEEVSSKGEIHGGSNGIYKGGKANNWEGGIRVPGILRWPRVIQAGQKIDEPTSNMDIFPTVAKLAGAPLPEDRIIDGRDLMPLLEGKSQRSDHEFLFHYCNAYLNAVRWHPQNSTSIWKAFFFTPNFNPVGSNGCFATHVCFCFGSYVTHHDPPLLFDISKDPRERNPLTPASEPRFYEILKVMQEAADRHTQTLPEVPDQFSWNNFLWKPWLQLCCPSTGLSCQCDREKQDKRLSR

E1-STS [2] = target: T1, E1-STS; details: cited from earlier work
[3] = 5 μM compound in combination with 250 ng/ml TRAIL
[4] = treatment alone, 5 μM compound or 250 ng/ml TRAIL

Row | Molecule | DR4 mRNA levels (DR4 mRNA) | cell death compared to treatment with compound alone (CAL51 cells) | DR5 protein levels by western blot (DR5 protein) | DR5 mRNA levels (DR5/GAPDH) compared to untreated control (DR5 mRNA) | cell death (MCF-7 cells; [3]) [%] | cell death (MCF-7 cells; [4]) [%] | activation of caspase 3 compared to compound alone (caspase 3) | activation of caspase 3 (reduction of unprocessed caspase 3) (caspase 3) | inhibition of E1-STS activity (E1-STS [1]) | inhibition of the E1-STS enzyme (E1-STS [2]) | TRAIL induced cell death (CAL51 cells; TRAIL alone (50 or 250 ng/ml))
1 | CCc1cc2c(cc1OS(N)(=O)=O)CCC1C2CCC2(C)C(=O)CCC12 (stereo not drawn) [2-EtEMATE, 2-ethyloestrone-3-O-sulphamate] | did not change significantly | enhanced the amount of cell death | did not detect a significant increase | significantly increased | 36 | 16 | further enhanced | induced activation of caspase 3 |  |  | 
2 | COc1cc2c(cc1OS(N)(=O)=O)CCC1C2CCC2(C)C(=O)CCC12 (stereo not drawn) [2-MeOEMATE, 2-methoxyoestrone-3-O-sulphamate] | did not change significantly | enhanced the amount of cell death | did not detect a significant increase | significantly increased | 35 | 13 | further enhanced | induced activation of caspase 3 |  |  | 
3 | CC12CCC3c4ccc(OS(N)(=O)=O)cc4CCC3C1CCC2=O (stereo not drawn) [EMATE, oestrone-3-sulphamate] |  |  |  |  |  |  |  |  | more than 99% | time- and concentration-dependent manner | 
4 | B1 |  |  |  |  |  | 12 |  | no detectable caspase 3 activation |  |  | resistant to TRAIL induced cell death
